Measurements: patent US20110065694A1 (priority 2009, published 2011)

target: human histamine H3 receptor (Homo sapiens, UniProt Q9Y5N1); assay: H3 GTPγS assay (SPA method), histamine H3 in vitro assay; format: biochemical; details: not given
Protocol: Briefly, cells expressing the human histamine H3 receptor were homogenized in 15 mM Tris-HCl pH 7.5, 2 mM MgCl2, 0.3 mM EDTA, and 1 mM EGTA. […] Membranes were frozen in liquid nitrogen until use. On the day of the assay, membranes were thawed and diluted in assay buffer (20 mM HEPES pH 7.4, 100 mM NaCl, 10 μg/ml saponin, 1 mM MgCl2) to give 500 μg/ml and mixed (v/v) with GDP in assay buffer for a final GDP concentration of 10 μM and incubated on ice for at least […]. PVT-WGA beads (Amersham, RPNQ001) were diluted in assay buffer at 50 mg/mL and mixed with GTPγ[^35S] (Amersham, SJ1308) diluted in assay buffer to give ˜25,000 dpm/10 μL and mixed vol/vol just before the start of the reaction.
For antagonists testing, 10 μL of a reference agonist ([…]) instead of 10 μL buffer was added at a concentration corresponding to the EC80 (30 nM).
The compounds provided herein were tested in the histamine H3 in vitro assay. In one embodiment, the respective HCl salts of the compounds provided herein were prepared using standard chemical procedures and tested in the histamine H3 in vitro assay.

human histamine H3 receptor, sequence (Q9Y5N1 whole entry): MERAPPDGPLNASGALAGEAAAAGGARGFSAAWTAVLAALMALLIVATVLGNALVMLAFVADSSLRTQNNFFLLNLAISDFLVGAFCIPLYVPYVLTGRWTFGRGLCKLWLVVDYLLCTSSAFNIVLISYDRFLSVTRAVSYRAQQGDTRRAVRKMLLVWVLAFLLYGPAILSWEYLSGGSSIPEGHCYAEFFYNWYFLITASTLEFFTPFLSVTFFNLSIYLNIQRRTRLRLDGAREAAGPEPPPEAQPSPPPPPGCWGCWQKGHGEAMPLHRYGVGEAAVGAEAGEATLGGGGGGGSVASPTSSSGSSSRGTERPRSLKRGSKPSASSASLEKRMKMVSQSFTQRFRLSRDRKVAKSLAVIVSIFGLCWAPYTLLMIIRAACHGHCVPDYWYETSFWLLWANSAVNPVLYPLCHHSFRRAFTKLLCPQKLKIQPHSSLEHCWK

SMILES | IC50
NCc1ccc(-c2ccc3c(c2)nc2n3C3CCC2CN(C2CCC2)C3)cc1 (stereo not shown) [Compound 31, (4-(3-cyclobutyl-2,3,4,5-tetrahydro-1H-1,5-ethanobenzo[4,5]imidazo[1,2-d][1,4]diazepin-8-yl)phenyl)methanamine] | < 100 nM

same assay, conditions: membranes of cells expressing human H3; GTPγ[35S] SPA; antagonist testing with reference agonist at EC80 (30 nM); in one embodiment HCl salts tested; read-out: Potency (functional potency as indicated by IC50)

SMILES | IC50
c1coc(-c2ccc3c(c2)nc2n3C3CCC2CN(C2CCC2)C3)c1 (stereo not shown) [Compound 29, 3-cyclobutyl-8-(furan-2-yl)-2,3,4,5-tetrahydro-1H-1,5-ethanobenzo[4,5]imidazo[1,2-d][1,4]diazepine] | < 1000 nM
c1cnc(-c2ccc3c(c2)nc2n3C3CCC2CN(C2CCC2)C3)cn1 (stereo not shown) [Compound 30, 3-cyclobutyl-8-(pyrazin-2-yl)-2,3,4,5-tetrahydro-1H-1,5-ethanobenzo[4,5]imidazo[1,2-d][1,4]diazepine] | < 100 nM
Clc1ccc2c(c1)nc1n2C2CC(C1)N(C1CCC1)C2 (stereo not shown) [Compound 32, 8-chloro-3-cyclobutyl-2,3,4,5-tetrahydro-1H-1,4-methanobenzo[4,5]imidazo[1,2-d][1,4]diazepine] | > 1000 nM
N#Cc1ccc(-c2ccc3c(c2)nc2n3C3CC(C2)N(C2CCC2)C3)cc1 (stereo not shown) [Compound 33, 4-(3-cyclobutyl-2,3,4,5-tetrahydro-1H-1,4-methanobenzo[4,5]imidazo[1,2-d][1,4]diazepin-8-yl)benzonitrile] | < 1000 nM
c1cn2cc(-c3ccc4c(c3)nc3n4C4CC(C3)N(C3CCC3)C4)ccc2n1 (stereo not shown) [Compound 34, 3-cyclobutyl-8-(imidazo[1,2-a]pyridin-6-yl)-2,3,4,5-tetrahydro-1H-1,4-methanobenzo[4,5]imidazo[1,2-d][1,4]diazepine] | < 1000 nM
Clc1ccc2c(c1)nc1n2CC2CC1CN2C1CCC1 (stereo not shown) [Compound 35, 8-chloro-3-cyclobutyl-2,3,4,5-tetrahydro-1H-2,5-methanobenzo[4,5]imidazo[1,2-d][1,4]diazepine] | < 1000 nM
N#Cc1ccc(-c2ccc3c(c2)nc2n3CC3CC2CN3C2CCC2)cc1 (stereo not shown) [Compound 36, 4-(3-cyclobutyl-2,3,4,5-tetrahydro-1H-2,5-methanobenzo[4,5]imidazo[1,2-d][1,4]diazepin-8-yl)benzonitrile] | < 1000 nM
c1cn2cc(-c3ccc4c(c3)nc3n4CC4CC3CN4C3CCC3)ccc2n1 (stereo not shown) [Compound 37, 3-cyclobutyl-8-(imidazo[1,2-a]pyridin-6-yl)-2,3,4,5-tetrahydro-1H-2,5-methanobenzo[4,5]imidazo[1,2-d][1,4]diazepine] | > 1000 nM
c1ccc2c(c1)ncn2-c1ccc2c(c1)nc1n2CC2CC1CN2C1CCC1 (stereo not shown) [Compound 38, 8-(1H-benzo[d]imidazol-1-yl)-3-cyclobutyl-2,3,4,5-tetrahydro-1H-2,5-methanobenzo[4,5]imidazo[1,2-d][1,4]diazepine] | < 1000 nM
c1cc2c(cc1CN1CCOCC1)nc1n2CC2CC1CN2C1CCC1 (stereo not shown) [Compound 39, 4-((3-cyclobutyl-2,3,4,5-tetrahydro-1H-2,5-methanobenzo[4,5]imidazo[1,2-d][1,7]diazepin-8-yl)methyl)morpholine] | > 1000 nM
c1cn2cc(-c3ccc4c(c3)nc3n4CC4CCC(C3)N4C3CCC3)ccc2n1 (stereo not shown) [Compound 60, 13-cyclobutyl-3-(imidazo[1,2-a]pyridin-6-yl)-6,7,8,9,10,11-hexahydro-7,10-epiminobenzo[4,5]imidazo[1,2-a]azocine] | < 10 nM
c1ccc2c(c1)ncn2-c1ccc2c(c1)nc1n2CC2CCC(C1)N2C1CCC1 (stereo not shown) [Compound 61, 3-(1H-benzo[d]imidazol-1-yl)-13-cyclobutyl-6,7,8,9,10,11-hexahydro-7,10-epiminobenzo[4,5]imidazo[1,2-a]azocine] | < 100 nM
c1cc2c(cc1CN1CCOCC1)nc1n2CC2CCC(C1)N2C1CCC1 (stereo not shown) [Compound 62, 4-((13-cyclobutyl-6,7,8,9,10,11-hexahydro-7,10-epiminobenzo[4,5]imidazo[1,2-a]azocin-3-yl)methyl)morpholine] | < 100 nM
N#Cc1ccc(-c2ccc3c(c2)nc2n3CCCN3CCCCC3C2)cc1 (stereo not shown) [Compound 66, 4-(2,3,4,6,7,8,15,15a-octahydro-1H-benzo[4,5]imidazo[1,2-a]pyrido[2,1-d][1,5]diazocin-12-yl)benzonitrile] | < 10 nM

The remaining lines, values ahead:

IC50 | SMILES
< 100 nM | CC1Cc2nc3cc(Br)ccc3n2CCN1C1CCC1 (stereo not shown) [Compound 40, 8-bromo-3-cyclobutyl-4-methyl-2,3,4,5-tetrahydro-1H-benzo[4,5]imidazo[1,2-d][1,4]diazepine]
< 10 nM | CC1Cc2nc3cc(-c4ccc(C#N)cc4)ccc3n2CCN1C1CCC1 (stereo not shown) [Compound 41, 4-(3-cyclobutyl-4-methyl-2,3,4,5-tetrahydro-1H-benzo[4,5]imidazo[1,2-d][1,4]diazepin-8-yl)benzonitrile]
< 1000 nM | CC1Cn2c(nc3cc(Br)ccc32)CCN1C1CCC1 (stereo not shown) [Compound 42, 8-bromo-3-cyclobutyl-2-methyl-2,3,4,5-tetrahydro-1H-benzo[4,5]imidazo[1,2-d][1,4]diazepine]
< 100 nM | CC1Cn2c(nc3cc(-c4ccc(C#N)cc4)ccc32)CCN1C1CCC1 (stereo not shown) [Compound 43, 4-(3-cyclobutyl-2-methyl-2,3,4,5-tetrahydro-1H-benzo[4,5]imidazo[1,2-d][1,4]diazepin-8-yl)benzonitrile]
< 100 nM | c1cn2cc(-c3ccc4c(c3)nc3n4CCN4CCCC[C@H]4C3)ccc2n1 [Compound 49, (S)-11-(imidazo[1,2-a]pyridin-6-yl)-1,2,3,4,6,7,14,14a-octahydrobenzo[4,5]imidazo[1,2-d]pyrido[2,1-g][1,4]diazepine]
> 1000 nM | Brc1ccc2c(c1)nc1n2CCN(C2CCC2)C1 [Compound 52, 8-bromo-2-cyclobutyl-1,2,3,4-tetrahydrobenzo[4,5]imidazo[1,2-a]pyrazine]
< 1000 nM | N#Cc1ccc(-c2ccc3c(c2)nc2n3CCN(C3CCC3)C2)cc1 [Compound 53, 4-(2-cyclobutyl-1,2,3,4-tetrahydrobenzo-[4,5]imidazo[1,2-a]pyrazin-8-yl)benzonitrile]
< 1000 nM | c1cn2cc(-c3ccc4c(c3)nc3n4CCN(C4CCC4)C3)ccc2n1 [Compound 54, 2-cyclobutyl-8-(imidazo[1,2-a]pyridin-6-yl)-1,2,3,4-tetrahydrobenzo[4,5]imidazo[1,2-a]pyrazine]
< 1000 nM | c1ccc2c(c1)ncn2-c1ccc2c(c1)nc1n2CCN(C2CCC2)C1 [Compound 55, 8-(1H-benzo[d]imidazol-1-yl)-2-cyclobutyl-1,2,3,4-tetrahydrobenzo[4,5]imidazo[1,2-a]pyrazine]
< 10 nM | c1cc2c(cc1CN1CCOCC1)nc1n2CCN(C2CCC2)C1 [Compound 56, 4-((2-cyclobutyl-1,2,3,4-tetrahydrobenzo-[4,5]imidazo[1,2-a]pyrazin-8-yl)methyl)morpholine]
< 100 nM | Clc1ccc2c(c1)nc1n2CCCN(C2CCC2)CC1 [Compound 57, 10-chloro-3-cyclobutyl-1,2,3,4,5,6-hexahydrobenzo[4,5]imidazo[1,2-a][1,5]diazocine]
< 10 nM | N#Cc1ccc(-c2ccc3c(c2)nc2n3CCCN(C3CCC3)CC2)cc1 [Compound 58, 4-(3-cyclobutyl-1,2,3,4,5,6-hexahydrobenzo[4,5]imidazo[1,2-a][1,5]diazocin-10-yl)benzonitrile]
< 100 nM | c1ccc2c(c1)CCN(Cc1ccc3c(c1)nc1n3CCN3CCCC[C@H]3C1)C2 [Compound 65, (S)-11-((3,4-dihydroisoquinolin-2(1H)-yl)methyl)-1,2,3,4,6,7,14,14a-octahydrobenzo[4,5]imidazo[1,2-d]pyrido[2,1-g][1,4]diazepine]
